Test results reported in patent US10815230B2, “Casein kinase 1 delta inhibitor” (ELECTROPHORETICS LIMITED, priority 2015, dated 2020).

Tests used:
Assay in all cases: Kinase selectivity, % remaining activity
Type in all cases: biochemical
Details in all cases: 10 μM compound, 10 μM ATP, duplicate
ABL2/ARG = ABL2/ARG (Homo sapiens, UniProt P42684)
Experimental: (§1) A two-tier strategy to determine the selectivity of compound A was applied: first, the compound was tested at a single concentration (in duplicate) to determine the %-remaining activity of the target kinase. Subsequently, the IC50 of compound A and comparative compounds for casein kinase 1 delta were determined.
(§2) Compounds were tested in single dose duplicate mode at a concentration of 10 μM (in DMSO) and reactions were carried out at 10 μM ATP, Table 3 reports the % of remaining activity (relative to DMSO).

ALK5/TGFBR1 = target: T1, ALK5/TGFBR1 (Homo sapiens, UniProt P36897)
T1 sequence (P36897 34-503): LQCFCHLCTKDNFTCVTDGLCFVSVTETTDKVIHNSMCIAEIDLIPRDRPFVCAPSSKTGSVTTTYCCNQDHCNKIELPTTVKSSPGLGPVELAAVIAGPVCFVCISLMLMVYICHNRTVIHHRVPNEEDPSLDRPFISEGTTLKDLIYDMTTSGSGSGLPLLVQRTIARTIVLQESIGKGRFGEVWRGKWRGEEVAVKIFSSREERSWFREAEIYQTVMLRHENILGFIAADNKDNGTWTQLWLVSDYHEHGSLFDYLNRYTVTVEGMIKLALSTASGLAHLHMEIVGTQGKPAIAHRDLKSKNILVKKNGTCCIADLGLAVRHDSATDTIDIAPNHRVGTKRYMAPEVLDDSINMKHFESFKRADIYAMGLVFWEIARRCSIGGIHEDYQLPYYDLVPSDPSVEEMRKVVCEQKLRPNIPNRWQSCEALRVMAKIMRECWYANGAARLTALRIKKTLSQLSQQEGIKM
Experimental: as §1, §2

CK1e = CK1e (Homo sapiens, UniProt P49674)
Experimental: as §1, §2

CK1g1 = CK1g1 (Homo sapiens, UniProt Q9HCP0)
Experimental: as §1, §2

CK1g2 = CK1g2 (Homo sapiens, UniProt P78368)
Experimental: as §1, §2

CK1g3 = CK1g3 (Homo sapiens, UniProt Q9Y6M4)
Experimental: as §1, §2

CLK2 = CLK2 (Homo sapiens, UniProt P49760)
Chain of CLK2 (P49760 whole entry): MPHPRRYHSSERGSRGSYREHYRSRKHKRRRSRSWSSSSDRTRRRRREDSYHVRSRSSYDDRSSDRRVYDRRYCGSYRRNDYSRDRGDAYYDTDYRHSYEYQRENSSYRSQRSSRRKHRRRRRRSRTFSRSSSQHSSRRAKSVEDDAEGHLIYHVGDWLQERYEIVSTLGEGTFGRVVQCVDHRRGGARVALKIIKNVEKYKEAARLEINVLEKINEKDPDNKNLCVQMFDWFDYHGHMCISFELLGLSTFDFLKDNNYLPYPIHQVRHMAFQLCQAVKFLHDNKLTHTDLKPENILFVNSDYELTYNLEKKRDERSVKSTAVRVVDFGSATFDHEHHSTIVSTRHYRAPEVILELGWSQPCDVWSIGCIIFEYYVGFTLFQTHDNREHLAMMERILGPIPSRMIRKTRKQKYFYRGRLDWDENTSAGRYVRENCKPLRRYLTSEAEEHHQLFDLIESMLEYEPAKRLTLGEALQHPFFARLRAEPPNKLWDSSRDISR
Experimental: as §1, §2

DAPK1 = DAPK1 (Homo sapiens, UniProt P53355)
Experimental: as §1, §2

EPHA2 = EPHA2 (Homo sapiens, UniProt P29317)
Experimental: as §1, §2

FGFR1 = FGFR1 (Homo sapiens, UniProt P11362)
Experimental: as §1, §2

GSK3B = GSK3B (Homo sapiens, UniProt P49841)
Experimental: as §1, §2

JNK2 = JNK2 (Homo sapiens, UniProt P45984)
Experimental: as §1, §2

KDR/VEGFR2 = KDR/VEGFR2 (Homo sapiens, UniProt P35968)
Chain of KDR/VEGFR2 (P35968 20-1356): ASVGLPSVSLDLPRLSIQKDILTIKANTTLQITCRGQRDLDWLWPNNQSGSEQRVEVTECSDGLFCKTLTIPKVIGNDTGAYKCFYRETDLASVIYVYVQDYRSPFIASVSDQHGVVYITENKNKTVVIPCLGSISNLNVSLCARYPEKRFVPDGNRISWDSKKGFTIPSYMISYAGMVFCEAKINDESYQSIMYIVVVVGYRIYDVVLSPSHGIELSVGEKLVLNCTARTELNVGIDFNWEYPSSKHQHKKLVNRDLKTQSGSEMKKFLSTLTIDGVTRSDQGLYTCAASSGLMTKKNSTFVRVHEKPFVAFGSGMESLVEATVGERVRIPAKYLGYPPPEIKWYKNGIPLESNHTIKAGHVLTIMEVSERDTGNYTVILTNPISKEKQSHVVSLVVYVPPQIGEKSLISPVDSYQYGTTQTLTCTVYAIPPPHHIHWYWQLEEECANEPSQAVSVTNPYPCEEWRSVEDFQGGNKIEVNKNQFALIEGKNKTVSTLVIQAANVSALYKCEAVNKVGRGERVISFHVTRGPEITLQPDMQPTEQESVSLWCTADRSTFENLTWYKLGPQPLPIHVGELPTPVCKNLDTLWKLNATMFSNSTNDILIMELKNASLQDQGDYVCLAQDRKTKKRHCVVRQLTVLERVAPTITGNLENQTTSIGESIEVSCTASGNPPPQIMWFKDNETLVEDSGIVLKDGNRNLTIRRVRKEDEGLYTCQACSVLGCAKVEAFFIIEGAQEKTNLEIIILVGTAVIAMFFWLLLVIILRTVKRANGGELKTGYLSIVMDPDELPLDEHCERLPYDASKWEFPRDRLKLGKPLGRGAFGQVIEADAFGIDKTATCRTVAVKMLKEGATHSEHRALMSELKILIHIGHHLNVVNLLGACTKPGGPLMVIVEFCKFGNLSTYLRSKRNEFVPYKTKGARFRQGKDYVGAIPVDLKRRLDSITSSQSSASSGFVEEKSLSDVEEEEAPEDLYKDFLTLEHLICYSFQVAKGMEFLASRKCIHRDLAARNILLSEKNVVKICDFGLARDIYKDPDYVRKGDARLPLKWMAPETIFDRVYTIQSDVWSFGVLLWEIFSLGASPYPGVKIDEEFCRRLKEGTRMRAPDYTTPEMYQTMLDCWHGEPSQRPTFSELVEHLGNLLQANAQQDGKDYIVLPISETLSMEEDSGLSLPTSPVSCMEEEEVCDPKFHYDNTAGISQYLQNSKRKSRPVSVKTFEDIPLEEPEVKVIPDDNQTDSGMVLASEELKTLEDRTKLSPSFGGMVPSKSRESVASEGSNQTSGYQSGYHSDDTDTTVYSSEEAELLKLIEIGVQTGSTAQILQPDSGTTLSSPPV
Experimental: as §1, §2

LCK = LCK (Homo sapiens, UniProt P06239)
Chain of LCK (P06239 whole entry): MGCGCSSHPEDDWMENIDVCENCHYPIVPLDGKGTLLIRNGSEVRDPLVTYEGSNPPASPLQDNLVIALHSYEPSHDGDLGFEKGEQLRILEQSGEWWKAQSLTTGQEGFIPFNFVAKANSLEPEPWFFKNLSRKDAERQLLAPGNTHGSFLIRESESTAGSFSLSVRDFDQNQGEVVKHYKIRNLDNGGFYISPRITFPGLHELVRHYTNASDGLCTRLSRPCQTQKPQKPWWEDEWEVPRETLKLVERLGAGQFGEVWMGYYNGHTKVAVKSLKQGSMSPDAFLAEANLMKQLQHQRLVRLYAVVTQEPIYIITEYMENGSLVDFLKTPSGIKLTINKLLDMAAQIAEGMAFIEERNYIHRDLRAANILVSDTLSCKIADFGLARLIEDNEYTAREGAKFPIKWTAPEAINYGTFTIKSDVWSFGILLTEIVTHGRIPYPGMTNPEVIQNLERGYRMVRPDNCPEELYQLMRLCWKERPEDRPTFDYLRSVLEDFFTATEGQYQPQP
Experimental: as §1, §2

P38a/MAPK14 = P38a/MAPK14 (Homo sapiens, UniProt Q16539)
Chain of P38a/MAPK14 (Q16539 whole entry): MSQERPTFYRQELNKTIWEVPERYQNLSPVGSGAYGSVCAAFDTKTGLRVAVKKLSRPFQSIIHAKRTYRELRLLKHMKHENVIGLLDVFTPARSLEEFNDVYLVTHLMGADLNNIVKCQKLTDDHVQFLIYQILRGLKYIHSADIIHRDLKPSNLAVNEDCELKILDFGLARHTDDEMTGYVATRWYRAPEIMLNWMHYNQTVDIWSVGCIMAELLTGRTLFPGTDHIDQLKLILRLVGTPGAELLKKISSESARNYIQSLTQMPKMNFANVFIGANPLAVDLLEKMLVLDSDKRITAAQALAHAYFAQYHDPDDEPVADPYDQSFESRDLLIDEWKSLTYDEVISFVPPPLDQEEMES
Experimental: as §1, §2

PDK1/PDPK1 = target: T2, PDK1/PDPK1 (Homo sapiens, UniProt O15530)
T2 sequence (O15530 1-556): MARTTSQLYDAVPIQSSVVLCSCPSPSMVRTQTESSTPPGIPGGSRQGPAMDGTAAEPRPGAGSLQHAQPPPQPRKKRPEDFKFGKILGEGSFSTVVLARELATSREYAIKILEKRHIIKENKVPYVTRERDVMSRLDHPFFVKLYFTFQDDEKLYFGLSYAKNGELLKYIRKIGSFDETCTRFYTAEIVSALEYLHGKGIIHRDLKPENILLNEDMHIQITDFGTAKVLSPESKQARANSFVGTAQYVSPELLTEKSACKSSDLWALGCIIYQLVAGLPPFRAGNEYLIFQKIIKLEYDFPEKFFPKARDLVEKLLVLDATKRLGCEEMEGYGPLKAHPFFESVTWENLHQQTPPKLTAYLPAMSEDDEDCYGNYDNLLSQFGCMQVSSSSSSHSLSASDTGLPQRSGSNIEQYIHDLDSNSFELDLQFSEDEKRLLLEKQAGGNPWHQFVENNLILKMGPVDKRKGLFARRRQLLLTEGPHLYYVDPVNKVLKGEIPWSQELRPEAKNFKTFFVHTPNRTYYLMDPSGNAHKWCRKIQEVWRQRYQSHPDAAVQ
Experimental: as §1, §2

PIM3 = PIM3 (Homo sapiens, UniProt Q86V86)
Experimental: as §1, §2

PKA = PKA (Homo sapiens, UniProt P17612)
Experimental: as §1, §2

PKCb2 = PKCb2 (Homo sapiens, UniProt P05771)
Chain of PKCb2 (P05771 1-673 isoform P05771-2): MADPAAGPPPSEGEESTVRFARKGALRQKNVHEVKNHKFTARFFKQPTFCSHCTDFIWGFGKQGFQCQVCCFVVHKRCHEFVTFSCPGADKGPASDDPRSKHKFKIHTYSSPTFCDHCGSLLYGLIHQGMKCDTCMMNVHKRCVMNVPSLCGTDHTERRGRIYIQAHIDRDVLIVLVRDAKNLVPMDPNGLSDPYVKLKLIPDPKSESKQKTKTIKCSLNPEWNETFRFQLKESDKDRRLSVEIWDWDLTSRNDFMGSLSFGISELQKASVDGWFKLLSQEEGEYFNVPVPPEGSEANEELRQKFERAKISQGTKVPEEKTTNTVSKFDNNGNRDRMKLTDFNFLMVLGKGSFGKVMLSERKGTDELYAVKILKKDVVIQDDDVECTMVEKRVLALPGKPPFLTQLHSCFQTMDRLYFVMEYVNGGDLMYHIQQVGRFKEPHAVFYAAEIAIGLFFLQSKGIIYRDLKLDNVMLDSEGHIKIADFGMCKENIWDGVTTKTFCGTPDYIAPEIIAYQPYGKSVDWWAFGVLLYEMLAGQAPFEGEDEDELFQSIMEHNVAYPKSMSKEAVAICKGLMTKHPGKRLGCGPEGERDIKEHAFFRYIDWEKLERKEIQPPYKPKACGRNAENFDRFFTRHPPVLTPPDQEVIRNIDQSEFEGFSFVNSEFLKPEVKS
Experimental: as §1, §2

RIPK2 = RIPK2 (Homo sapiens, UniProt O43353)
Experimental: as §1, §2

TNIK = TNIK (Homo sapiens, UniProt Q9UKE5)
Experimental: as §1, §2

YES/YES1 = YES/YES1 (Homo sapiens, UniProt P07947)
Experimental: as §1, §2

c-Src = c-Src (Homo sapiens, UniProt P12931)
Experimental: as §1, §2

[1] = read-out: % of remaining activity (relative to DMSO)

Chain of ABL2/ARG (P42684 whole entry): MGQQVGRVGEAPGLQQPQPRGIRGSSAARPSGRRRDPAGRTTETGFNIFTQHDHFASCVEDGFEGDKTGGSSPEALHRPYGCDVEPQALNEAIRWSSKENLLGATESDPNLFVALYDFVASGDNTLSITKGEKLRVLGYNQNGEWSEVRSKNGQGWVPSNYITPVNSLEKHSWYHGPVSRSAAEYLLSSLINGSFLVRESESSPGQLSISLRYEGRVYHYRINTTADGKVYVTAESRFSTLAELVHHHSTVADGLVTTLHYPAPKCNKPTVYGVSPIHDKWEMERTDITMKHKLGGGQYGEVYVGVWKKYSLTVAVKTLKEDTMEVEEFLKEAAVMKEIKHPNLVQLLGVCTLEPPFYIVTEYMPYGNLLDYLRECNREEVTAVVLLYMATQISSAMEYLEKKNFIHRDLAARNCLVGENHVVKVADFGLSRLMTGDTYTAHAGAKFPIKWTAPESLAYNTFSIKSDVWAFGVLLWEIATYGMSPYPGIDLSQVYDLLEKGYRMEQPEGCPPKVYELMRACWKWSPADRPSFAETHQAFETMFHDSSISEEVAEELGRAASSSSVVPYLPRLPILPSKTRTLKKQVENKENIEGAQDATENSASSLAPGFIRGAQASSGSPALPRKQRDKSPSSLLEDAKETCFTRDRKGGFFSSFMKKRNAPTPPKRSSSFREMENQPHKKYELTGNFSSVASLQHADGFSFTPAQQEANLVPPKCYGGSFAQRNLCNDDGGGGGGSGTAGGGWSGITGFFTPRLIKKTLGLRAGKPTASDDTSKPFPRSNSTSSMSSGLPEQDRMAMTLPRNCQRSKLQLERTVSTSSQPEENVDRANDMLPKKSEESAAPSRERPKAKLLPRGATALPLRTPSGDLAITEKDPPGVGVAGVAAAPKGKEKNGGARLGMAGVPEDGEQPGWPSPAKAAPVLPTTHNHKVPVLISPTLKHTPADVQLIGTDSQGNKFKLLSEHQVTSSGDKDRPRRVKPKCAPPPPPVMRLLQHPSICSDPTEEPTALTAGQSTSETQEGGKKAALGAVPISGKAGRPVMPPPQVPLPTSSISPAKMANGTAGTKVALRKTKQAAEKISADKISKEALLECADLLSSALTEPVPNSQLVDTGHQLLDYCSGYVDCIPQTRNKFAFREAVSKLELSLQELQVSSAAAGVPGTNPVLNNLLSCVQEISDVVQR

% of remaining activity (relative to DMSO) (ABL2/ARG; listed as Cmp 315): 89.19% | remaining activity at 10 µM (ABL2/ARG; [1]): 83.4% | % of remaining activity (relative to DMSO) (ALK5/TGFBR1; listed as Cmp 315): 110.31% | remaining activity at 10 µM (ALK5/TGFBR1; [1]): 107% | % of remaining activity (relative to DMSO) (CK1e; listed as Cmp 315): 6.51% | remaining activity at 10 µM (CK1e; [1]): 5.45% | % of remaining activity (relative to DMSO) (CK1g1; listed as Cmp 315): 73.02% | remaining activity at 10 µM (CK1g1; [1]): 71.9% | % of remaining activity (relative to DMSO) (CK1g2; listed as Cmp 315): 50.52% | remaining activity at 10 µM (CK1g2; [1]): 47.3% | % of remaining activity (relative to DMSO) (CK1g3; listed as Cmp 315): 2.99% | remaining activity at 10 µM (CK1g3; [1]): 2.9% | % of remaining activity (relative to DMSO) (CLK2; listed as Cmp 315): 48.99% | remaining activity at 10 µM (CLK2; [1]): 50.6% | % of remaining activity (relative to DMSO) (DAPK1; listed as Cmp 315): 90.84% | remaining activity at 10 µM (DAPK1; [1]): 96% | % of remaining activity (relative to DMSO) (EPHA2; listed as Cmp 315): 96.60% | remaining activity at 10 µM (EPHA2; [1]): 99% | % of remaining activity (relative to DMSO) (FGFR1; listed as Cmp 315): 101.65% | remaining activity at 10 µM (FGFR1; [1]): 102% | % of remaining activity (relative to DMSO) (GSK3B; listed as Cmp 315): 115.26% | remaining activity at 10 µM (GSK3B; [1]): 120% | % of remaining activity (relative to DMSO) (JNK2; listed as Cmp 315): 98.70% | remaining activity at 10 µM (JNK2; [1]): 99.4% | % of remaining activity (relative to DMSO) (KDR/VEGFR2; listed as Cmp 315): 107.86% | remaining activity at 10 µM (KDR/VEGFR2; [1]): 104% | % of remaining activity (relative to DMSO) (LCK; listed as Cmp 315): 97.71% | remaining activity at 10 µM (LCK; [1]): 94.9% | % of remaining activity (relative to DMSO) (P38a/MAPK14; listed as Cmp 315): 107.03% | remaining activity at 10 µM (P38a/MAPK14; [1]): 105% | % of remaining activity (relative to DMSO) (PDK1/PDPK1; listed as Cmp 315): 103.28% | remaining activity at 10 µM (PDK1/PDPK1; [1]): 105% | % of remaining activity (relative to DMSO) (PIM3; listed as Cmp 315): 57.54% | remaining activity at 10 µM (PIM3; [1]): 60.6% | % of remaining activity (relative to DMSO) (PKA; listed as Cmp 315): 112.40% | remaining activity at 10 µM (PKA; [1]): 116% | % of remaining activity (relative to DMSO) (PKCb2; listed as Cmp 315): 110.56% | remaining activity at 10 µM (PKCb2; [1]): 112% | % of remaining activity (relative to DMSO) (RIPK2; listed as Cmp 315): 90.19% | remaining activity at 10 µM (RIPK2; [1]): 93.4% | % of remaining activity (relative to DMSO) (TNIK; listed as Cmp 315): 101.11% | remaining activity at 10 µM (TNIK; [1]): 101% | % of remaining activity (relative to DMSO) (YES/YES1; listed as Cmp 315): 99.08% | remaining activity at 10 µM (YES/YES1; [1]): 99% | % of remaining activity (relative to DMSO) (c-Src; listed as Cmp 315): 101.24% | remaining activity at 10 µM (c-Src; [1]): 104%
Structure (SMILES): COc1ccc(C=C2N=C(c3cccs3)OC2=O)cc1 [Comparative Compound 315, 4-((4-methoxyphenyl)methylene)-2-(2-thienyl)-5(4H)-oxalone]
